How the values were obtained:
[1] = test system: LNCaP prostate cancer cell line; assay: Sulforhodamine B viability assay, LNCaP; type: cell-based, human; settings: for ABSORBANCE: LNCaP, 0.1 μg/mL cisplatin
Text: (§1) Three different viability assays were chosen to complement each other and yielded results dependent on concentration and cell line: the Methyl Tetrazolium dye assay, the Sulforhodamine B fluorescent dye assay, and the Crystal Violet dye assay.
The Sulforhodamine B and Crystal Violet assays provide information about protein and were used to complement the Methyl-Tetrazolium dye assay. […] It is used for the quantification of cellular proteins of cultured cells. The assay using Crystal Violet, a dye that binds electrostatically to proteins and stains DNA, provides a reliable, simple assay for measuring viability of cells.
(§2) The Methyl Tetrazolium, Sulforhodamine B, and Crystal Violet assays were used to assess cell viabilities. The incubation times were 24 hours, 48 hours, and 72 hours. The Nerium oleander extract Anvirzel™ (a hot water extract of oleander obtained from Salud Integral, Honduras) was tested in concentrations ranging from 0.01 ng/mL to 10 ng/mL.
(§3) Cells were detached by trypsinization (Trypsin-0.25% EDTA, Invitrogen, 25200-072) during the logarithmic phase of culture growth and plated in 96-well plates (18.000 cells/well) (Corning, Costar 359) in a final volume of 200 μl of medium per well. […] The absorbance was measured after 24 hours, 48 hours, and 72 hours of incubation.
For the Sulforhodamine B assay, 96-well plates were fixed by 10% trichloroacetic acid (Fluka, 91228) and were incubated at 4° C. for 1 hour. Afterwards, plates were rinsed with water and cells were stained with 0.4% Sulforhodamine B (Sigma, 341738), dissolved in 1% acetic acid (Carlo Ebra, 401422) for 15 minutes at room temperature (RT). The unbound stain was washed twice with 1% acetic acid. Finally, 10 mM Tris Buffer pH 10.5 (Sigma, T6791) was added to dissolve the dye.
(§4) The optical density of each plate was measured on a μQuant spectrophotometer and the data were analyzed with Gen5 software (μQuant Biomolecular Spectrophotometer MQX200 and Gen5™ Microplate Data Collection & Analysis software, BioTek® Instruments. Inc, April 2008). Absorbance was measured at 570 nm for all assays and a second wavelength was measured in order to subtract noise. For the Methyl-Tetrazolium assay this second wavelength was 630 nm and for the Sulforhodamine B and Crystal Violet assays it was 690 nm.

[2] = test system: HCT-15 (colorectal cancer); assay: Methyl-Tetrazolium viability assay, HCT-15; type: cell-based, human; parameters: key to MTT Average: absorbance (optical density) at 570 nm, second wavelength subtracted; settings: for MTT Average 24 h / MTT Average 48 h / MTT Average 72 h: HCT-15, Run 1
Text: as §1
The Methyl-Tetrazolium dye assay measures the activity of enzymes in mitochondria. The dye precursor is taken up by cells, where it undergoes reduction to the purple formazan. It measures only the mitochondrial activity and, thus, it is not always a reliable indication of whether the cells themselves are alive or dead, since even a recently dead cell has […] enzyme activity in mitochondria. Intracellular glucose concentration, pH, and time before assay all affect the measurements.
as §2, §3
For the Methyl-Tetrazolium assay, the dye (Sigma, M2128; 5 mg/mL, diluted in phosphate-buffered saline) was added to each well and plates were incubated for 3 hours at 37° C. After the end of the incubation period, the medium was discarded and the cells were rinsed with phosphate-buffered saline. Finally, the formazan crystals were dissolved in dimethylsulphoxide (Sigma, D4540).
as §4

## N.N.[Cl][Pt][Cl] [cisplatin]
[1]; LNCaP Run 3, 24 h, 0.1 μg/ml CDDP
  SRB Average: 1.975
[1]; LNCaP Run 3, 24 h, 1 μg/ml CDDP
  SRB Average: 1.541
[1]; LNCaP Run 3, 24 h, 10 μg/ml CDDP
  SRB Average: 1.242
[1]; LNCaP Run 3, 24 h, 100 μg/ml CDDP
  SRB Average: 1.2
[1]; LNCaP Run 3, 48 h, 0.1 μg/ml CDDP
  SRB Average: 1.761
[1]; LNCaP Run 3, 48 h, 1 μg/ml CDDP
  SRB Average: 1.56
[1]; LNCaP Run 3, 48 h, 10 μg/ml CDDP
  SRB Average: 1.46
[1]; LNCaP Run 3, 48 h, 100 μg/ml CDDP
  SRB Average: 1.284
[1]; LNCaP Run 3, 72 h, 0.1 μg/ml CDDP
  SRB Average: 2.009
[1]; LNCaP Run 3, 72 h, 1 μg/ml CDDP
  SRB Average: 1.584
[1]; LNCaP Run 3, 72 h, 10 μg/ml CDDP
  SRB Average: 1.561
[1]; LNCaP Run 3, 72 h, 100 μg/ml CDDP
  SRB Average: 1.421
[1]; 48 h
  ABSORBANCE: 1.681
[1]; 72 h
  ABSORBANCE: 1.766
[1]; Run 1, 0.1 μg/ml CDDP
  Average SRB 24 h: 1.611
  Average SRB 48 h: 2.798
  Average SRB 72 h: 2.532
[1]; Run 1, 1 μg/ml CDDP
  Average SRB 24 h: 1.294
  Average SRB 48 h: 2.888
  Average SRB 72 h: 2.483
[1]; Run 1, 10 μg/ml CDDP
  Average SRB 24 h: 1.205
  Average SRB 48 h: 2.893
  Average SRB 72 h: 2.648
[1]; Run 1, 100 μg/ml CDDP
  Average SRB 24 h: 1.2
  Average SRB 48 h: 2.555
  Average SRB 72 h: 2.649
[1]; Run 2, 0.1 μg/ml CDDP
  Average SRB 24 h: 1.78
  Average SRB 48 h: 1.681
  Average SRB 72 h: 1.766
[1]; Run 2, 1 μg/ml CDDP
  Average SRB 24 h: 1.495
  Average SRB 48 h: 1.14
  Average SRB 72 h: 1.396
[1]; Run 2, 10 μg/ml CDDP
  Average SRB 24 h: 0.982
  Average SRB 48 h: 1.077
  Average SRB 72 h: 1.28
[1]; Run 2, 100 μg/ml CDDP
  Average SRB 24 h: 0.985
  Average SRB 48 h: 1.138
  Average SRB 72 h: 1.25
[2]; 0.1 μg/ml CDDP
  MTT Average 24 h: 0.218
  MTT Average 48 h: 0.324
  MTT Average 72 h: 0.464
[2]; 1 μg/ml CDDP
  MTT Average 24 h: 0.032
  MTT Average 48 h: 0.032
  MTT Average 72 h: 0.025
[2]; 10 μg/ml CDDP
  MTT Average 24 h: 0.1
  MTT Average 48 h: 0.046
  MTT Average 72 h: 0.03
[2]; 100 μg/ml CDDP
  MTT Average 24 h: 0.034
  MTT Average 48 h: 0.023
  MTT Average 72 h: 0.017
[2]; Run 2, 24 h, 0.1 μg/ml CDDP
  MTT Average: 0.141
[2]; Run 2, 24 h, 1 μg/ml CDDP
  MTT Average: 0.03
[2]; Run 2, 24 h, 10 μg/ml CDDP
  MTT Average: 0.094
[2]; Run 2, 24 h, 100 μg/ml CDDP
  MTT Average: 0.025
[2]; Run 2, 48 h, 0.1 μg/ml CDDP
  MTT Average: 0.233
[2]; Run 2, 48 h, 1 μg/ml CDDP
  MTT Average: 0.031
[2]; Run 2, 48 h, 10 μg/ml CDDP
  MTT Average: 0.067
[2]; Run 2, 48 h, 100 μg/ml CDDP
  MTT Average: 0.014
[2]; Run 2, 72 h, 0.1 μg/ml CDDP
  MTT Average: 0.214
[2]; Run 2, 72 h, 1 μg/ml CDDP
  MTT Average: 0.016
[2]; Run 2, 72 h, 10 μg/ml CDDP
  MTT Average: 0.041
[2]; Run 2, 72 h, 100 μg/ml CDDP
  MTT Average: 0.01
[2]; Run 3, 24 h, 0.1 μg/ml CDDP
  MTT Average: 0.294
[2]; Run 3, 24 h, 1 μg/ml CDDP
  MTT Average: 0.028
[2]; Run 3, 24 h, 10 μg/ml CDDP
  MTT Average: 0.137
[2]; Run 3, 24 h, 100 μg/ml CDDP
  MTT Average: 0.039
[2]; Run 3, 48 h, 0.1 μg/ml CDDP
  MTT Average: 0.391
[2]; Run 3, 48 h, 1 μg/ml CDDP
  MTT Average: 0.035
[2]; Run 3, 48 h, 10 μg/ml CDDP
  MTT Average: 0.104
[2]; Run 3, 48 h, 100 μg/ml CDDP
  MTT Average: 0.026
[2]; Run 3, 72 h, 0.1 μg/ml CDDP
  MTT Average: 0.457
[2]; Run 3, 72 h, 1 μg/ml CDDP
  MTT Average: 0.039
[2]; Run 3, 72 h, 10 μg/ml CDDP
  MTT Average: 0.043
[2]; Run 3, 72 h, 100 μg/ml CDDP
  MTT Average: 0.017
